Assay [1] deals with T1, PI3K β (Homo sapiens, UniProt P42338).
T1 construct: Full length p110 subunits of PI3K α, β and δ, N-terminally labeled with polyHis tag; polyHis (N); made in house; host or cells: Sf9 insect cells (baculovirus)
Nature of the assay: In vitro PI3 kinase enzyme assay (beta), ATP loss, bioluminescence.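 Note: purified p110β/p85 heterodimer with PtdIns(4,5)P2 as acceptor, incubated at room temperature, leftover ATP read by luminescence, inhibition scaled to compound-free wells with and without enzyme.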 It counts as biochemical. To be noted: read-out: PI3Kβ ATP loss IC50.

Assay [2] concerns the target T2, PI3K α (Homo sapiens, UniProt P42336).
T2 construct: Full length p110 subunits of PI3K α, β and δ, N-terminally labeled with polyHis tag; polyHis (N); made in house; host or cells: Sf9 insect cells (baculovirus)
Nature of the assay: In vitro PI3 kinase enzyme assay (alpha), ATP loss, bioluminescence.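 Note: purified p110α/p85 heterodimer acting on PtdIns(4,5)P2 at room temperature, remaining ATP read by luminescence, inhibition scaled between compound-free wells with and without enzyme.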 It counts as biochemical. To be noted: read-out: PI3Kα ATP loss IC50.

For assay [3], the system named is phosphorylation of Serine 473 in Akt, HCT 116 human colon carcinoma cells. Nature of the assay: Cell-based phospho-AKT Ser473 assay (MSD sandwich immunoassay, IGF-1 stimulated). Summed up:
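HCT116 cells, 16,000/well and plated overnight, were pre-treated with serially diluted compound for 2 h at 37 °C, then stimulated with IGF-1 at 100 ng/ml for 15 min. Lysates were assayed for Akt pSer473 by MSD sandwich electrochemiluminescence, and IC50 was derived from dose-response data.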

Setting [4] is: Homo sapiens, HCT-116, HCT 116 cells, read-out: HCT 116 pAKT IC50.

Where two headings read alike, the source gives them in different places.

The results in this text go back to patent US7928140B2, “Benzothiazole PI3 kinase modulators for cancer treatment” (Amgen Inc., priority 2007, dated 2011).

In general, IC50 refers to the concentration needed to halve the response being measured.

T2 sequence (P42336 whole entry, species assumed): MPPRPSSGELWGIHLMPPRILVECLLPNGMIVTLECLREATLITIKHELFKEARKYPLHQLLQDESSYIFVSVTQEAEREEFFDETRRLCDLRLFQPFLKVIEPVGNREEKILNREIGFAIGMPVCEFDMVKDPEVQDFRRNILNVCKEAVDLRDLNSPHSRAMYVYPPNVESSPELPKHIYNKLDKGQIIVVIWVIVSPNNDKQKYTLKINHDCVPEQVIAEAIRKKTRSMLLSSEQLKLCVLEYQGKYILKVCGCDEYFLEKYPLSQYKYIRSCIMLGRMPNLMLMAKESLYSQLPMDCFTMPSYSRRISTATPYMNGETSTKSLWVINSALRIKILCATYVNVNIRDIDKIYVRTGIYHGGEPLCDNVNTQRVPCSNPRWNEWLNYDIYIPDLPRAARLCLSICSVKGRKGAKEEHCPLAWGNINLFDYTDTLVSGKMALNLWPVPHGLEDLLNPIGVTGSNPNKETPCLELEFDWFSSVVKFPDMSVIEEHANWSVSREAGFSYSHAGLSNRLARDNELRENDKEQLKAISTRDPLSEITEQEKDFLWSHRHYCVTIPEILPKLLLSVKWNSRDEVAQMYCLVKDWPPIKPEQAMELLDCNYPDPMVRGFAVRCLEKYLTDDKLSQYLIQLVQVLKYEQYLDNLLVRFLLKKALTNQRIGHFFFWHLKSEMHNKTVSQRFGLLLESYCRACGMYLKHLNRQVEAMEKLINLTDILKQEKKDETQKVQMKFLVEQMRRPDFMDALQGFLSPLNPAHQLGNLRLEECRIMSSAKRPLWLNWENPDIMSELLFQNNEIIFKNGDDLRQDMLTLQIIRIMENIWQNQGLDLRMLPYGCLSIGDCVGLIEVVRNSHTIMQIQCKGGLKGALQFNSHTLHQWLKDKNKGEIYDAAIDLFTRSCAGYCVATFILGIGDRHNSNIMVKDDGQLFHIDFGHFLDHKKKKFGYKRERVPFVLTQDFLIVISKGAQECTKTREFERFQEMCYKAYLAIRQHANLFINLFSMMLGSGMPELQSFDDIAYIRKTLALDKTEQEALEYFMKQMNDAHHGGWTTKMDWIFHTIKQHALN
T2 sequence (P27986 whole entry partner, species assumed): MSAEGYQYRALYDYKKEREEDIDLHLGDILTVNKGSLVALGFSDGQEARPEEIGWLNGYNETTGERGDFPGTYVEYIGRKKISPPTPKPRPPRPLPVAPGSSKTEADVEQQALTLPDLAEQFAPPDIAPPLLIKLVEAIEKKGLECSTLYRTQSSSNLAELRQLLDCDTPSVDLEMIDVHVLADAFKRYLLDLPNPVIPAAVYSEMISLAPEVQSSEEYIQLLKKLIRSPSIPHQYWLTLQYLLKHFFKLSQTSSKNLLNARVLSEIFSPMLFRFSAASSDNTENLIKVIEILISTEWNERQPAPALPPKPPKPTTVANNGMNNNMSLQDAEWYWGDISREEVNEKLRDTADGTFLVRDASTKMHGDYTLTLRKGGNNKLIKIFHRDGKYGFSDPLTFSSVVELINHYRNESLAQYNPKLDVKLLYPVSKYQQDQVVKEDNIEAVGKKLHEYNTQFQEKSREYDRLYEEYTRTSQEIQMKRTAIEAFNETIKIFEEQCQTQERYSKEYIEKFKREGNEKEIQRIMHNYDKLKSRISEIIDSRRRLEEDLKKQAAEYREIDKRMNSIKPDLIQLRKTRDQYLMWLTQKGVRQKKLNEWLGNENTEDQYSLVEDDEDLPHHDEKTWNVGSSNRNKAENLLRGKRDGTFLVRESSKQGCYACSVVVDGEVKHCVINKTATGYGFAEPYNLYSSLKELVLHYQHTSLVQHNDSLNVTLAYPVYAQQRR
T1 sequence (P42338 whole entry): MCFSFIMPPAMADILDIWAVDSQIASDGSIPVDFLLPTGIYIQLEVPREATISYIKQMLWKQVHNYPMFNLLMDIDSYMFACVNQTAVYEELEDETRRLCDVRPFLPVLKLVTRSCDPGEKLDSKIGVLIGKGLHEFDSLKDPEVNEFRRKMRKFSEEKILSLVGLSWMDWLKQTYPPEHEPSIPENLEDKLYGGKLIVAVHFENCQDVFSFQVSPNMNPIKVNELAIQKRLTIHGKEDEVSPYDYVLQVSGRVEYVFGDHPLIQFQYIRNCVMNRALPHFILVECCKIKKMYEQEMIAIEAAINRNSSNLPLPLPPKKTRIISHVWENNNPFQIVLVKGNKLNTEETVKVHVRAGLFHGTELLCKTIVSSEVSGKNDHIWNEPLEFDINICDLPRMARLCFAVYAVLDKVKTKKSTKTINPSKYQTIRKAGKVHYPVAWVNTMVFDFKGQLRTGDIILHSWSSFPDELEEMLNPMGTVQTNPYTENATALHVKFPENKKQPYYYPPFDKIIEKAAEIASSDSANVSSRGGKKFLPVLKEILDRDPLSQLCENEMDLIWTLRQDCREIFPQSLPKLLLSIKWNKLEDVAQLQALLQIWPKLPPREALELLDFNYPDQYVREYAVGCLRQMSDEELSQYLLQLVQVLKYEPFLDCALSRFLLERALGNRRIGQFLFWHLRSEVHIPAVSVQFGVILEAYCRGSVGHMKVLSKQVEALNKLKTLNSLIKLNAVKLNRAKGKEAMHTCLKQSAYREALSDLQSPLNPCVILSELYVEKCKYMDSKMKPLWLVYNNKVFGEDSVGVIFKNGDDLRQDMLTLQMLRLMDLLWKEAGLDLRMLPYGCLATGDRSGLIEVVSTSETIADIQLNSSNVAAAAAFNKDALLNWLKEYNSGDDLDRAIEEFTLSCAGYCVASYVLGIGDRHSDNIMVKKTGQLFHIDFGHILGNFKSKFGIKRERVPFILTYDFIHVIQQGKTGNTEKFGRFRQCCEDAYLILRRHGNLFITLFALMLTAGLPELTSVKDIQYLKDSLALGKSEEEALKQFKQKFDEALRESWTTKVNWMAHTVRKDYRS
T1 sequence (P27986 whole entry partner): as the sequence (P27986 whole entry partner, species assumed) above

`CC(=O)Nc1nc2ccc(-c3ccnc(N(C)S(=O)(=O)c4cccs4)n3)cc2s1` [Example 206, N-(6-(2-(N-methylthiophene-2-sulfonamido)pyrimidin-4-yl)benzo[d]thiazol-2-yl)acetamide]: the half-inhibitory concentration (IC50) stood at 194 nM in assay [1], 177 nM in assay [2] and 381 nM in assay [3] (setting [4]).
In the same order, the values of `Nc1nc2ccc(-c3cnc(Cl)c(NS(=O)(=O)c4ccc(F)cc4F)c3)cc2s1` [Example 311, N-(5-(2-amino-1,3-benzothiazol-6-yl)-2-chloro-3-pyridinyl)-2,4-difluorobenzenesulfonamide] are 49.1 nM, 17.1 nM and 222 nM.
For `CNc1nc2ccc(-c3cnc(Cl)c(NS(=O)(=O)c4c(C)cccc4Cl)c3)cc2s1` [Example 318, 2-chloro-N-(2-chloro-5-(2-(methylamino)-1,3-benzothiazol-6-yl)-3-pyridinyl)-6-methylbenzenesulfonamide], the IC50 was 42.3 nM in assay [1], 11.2 nM in assay [2] and 329 nM in assay [3] (setting [4]).
In the same order, the values of `CNc1ncc(-c2ccc3nc(NC(C)=O)sc3c2)cc1NC(C)C` [Example 147, N-(6-(5-(isopropylamino)-6-(methylamino)pyridin-3-yl)benzo[d]thiazol-2-yl)acetamide] are 5680 nM, 149 nM and 440 nM.
For `COCCNc1nccc(-c2ccc3nc(NC(C)=O)sc3c2)n1` [Example 47, N-(6-(2-((2-methoxyethyl)amino)-4-pyrimidinyl)-1,3-benzothiazol-2-yl)acetamide], in that order: 18400 nM, 696 nM and 1150 nM.
For `CC(=O)Nc1nc2ccc(-c3cncc(NS(=O)(=O)c4ccc(C)cc4)c3)cc2s1` [Example 194, N-(6-(5-(4-methylphenylsulfonamido)pyridin-3-yl)benzo[d]thiazol-2-yl)acetamide], the IC50 in assay [1] stood at 25.5 nM; in assay [2], 9.8 nM; in assay [3] (setting [4]) it was 27.6 nM.
In the same order, the values of `CC(=O)Nc1nc2ccc(-c3ccnc(OCc4ccncc4)n3)cc2s1` [Example 17, N-(6-(2-(4-pyridinylmethoxy)-4-pyrimidinyl)-1,3-benzothiazol-2-yl)acetamide] are 11100 nM, 523 nM and 1060 nM.
In the same order, the values of `CC(=O)Nc1nc2ccc(-c3ccnc(O[C@H](C)c4ccccc4)n3)cc2s1` [Example 43, N-(6-(2-((1R)-1-phenylethoxy)-4-pyrimidinyl)-1,3-benzothiazol-2-yl)acetamide] are 517 nM, 104 nM and 1060 nM.
In the same order, the values of `CC(=O)Nc1nc2c(F)cc(-c3cccc(S(=O)(=O)c4ccccc4F)n3)cc2s1` [Example 137, N-(4-fluoro-6-(6-((2-fluorophenyl)sulfonyl)-2-pyridinyl)-1,3-benzothiazol-2-yl)acetamide] are 1140 nM, 65 nM and 901 nM.
For the compound `CC(=O)Nc1nc2c(F)cc(-c3cncc(NS(=O)(=O)c4ccc(C(F)(F)F)cc4)c3)cc2s1` [Example 117, N-(4-fluoro-6-(5-(4-(trifluoromethyl)phenylsulfonamido)pyridin-3-yl)benzo[d]thiazol-2-yl)acetamide], the IC50 in assay [1] is 55.8 nM; in assay [2], 7.7 nM; in assay [3] (Homo sapiens, HCT-116, read-out: HCT 116 pAKT IC50) it was 301 nM.
Turning to `CC(=O)Nc1nc2ccc(-c3cncc(NS(=O)(=O)c4ccc(F)cc4)c3)cc2s1` [Example 198, N-(6-(5-(4-fluorophenylsulfonamido)pyridin-3-yl)benzo[d]thiazol-2-yl)acetamide], the IC50 in assay [1] is 14.7 nM; in assay [2], 5.3 nM; in assay [3] (setting [4]), 40.4 nM.
For `CC(=O)Nc1nc2ccc(-c3cccc(NS(=O)(=O)c4ccccc4F)n3)cc2s1` [Example 73, N-(6-(6-(2-Fluorophenylsulfonamido)pyridin-2-yl)benzo[d]thiazol-2-yl)acetamide], in that order: 149 nM, 60.6 nM and 320 nM.
For `CC(=O)Nc1nc2ccc(-c3ccnc(NS(=O)(=O)c4ccc(C)cc4)n3)cc2s1` [Example 83, N-(6-(2-(((4-methylphenyl)sulfonyl)amino)-4-pyrimidinyl)-1,3-benzothiazol-2-yl)acetamide], in that order: 62 nM, 34.3 nM and 408 nM.
In the same order, the values of `COc1cc(-c2ccc3nc(NC(C)=O)sc3c2)cnc1Cl` [Example 240, N-(6-(6-chloro-5-methoxypyridin-3-yl)benzo[d]thiazol-2-yl)acetamide] are 1280 nM, 155 nM and 643 nM.
`CC(=O)c1ccc(S(=O)(=O)Nc2cc(-c3ccc4nc(N)sc4c3)cnc2Cl)cc1` [Example 325, 4-acetyl-N-(5-(2-amino-1,3-benzothiazol-6-yl)-2-chloro-3-pyridinyl)benzenesulfonamide]: the IC50 is 20.6 nM in assay [1], 18 nM in assay [2] and 468 nM in assay [3] (setting [4]).
Turning to `CC(=O)Nc1nc2ccc(-c3cnc(Cl)c(NS(=O)(=O)C(C)C)c3)cc2s1` [Example 179, N-(6-(6-chloro-5-(propan-2-ylsulfonamido)pyridin-3-yl)benzo[d]thiazol-2-yl)acetamide], the IC50 was determined as 30.7 nM in assay [1], 12.7 nM in assay [2] and 29.4 nM in assay [3] (setting [4]).
As to `COc1ccc(Sc2cncc(-c3ccc4nc(NC(C)=O)sc4c3)n2)cc1` [Example 133, N-(6-(6-((4-methoxyphenyl)sulfanyl)-2-pyrazinyl)-1,3-benzothiazol-2-yl)acetamide], the IC50 in assay [1] worked out at 75.4 nM; in assay [2] it was 41.5 nM; in assay [3] (setting [4]) it was 1230 nM.
As to `CC(=O)Nc1nc2ccc(-c3cnc(Cl)c(NS(=O)(=O)c4ccc(C(C)O)cc4)c3)cc2s1` (single isomer, unassigned) [Example 257, N-(6-(6-chloro-5-(((4-(1-hydroxyethyl)phenyl)sulfonyl)amino)-3-pyridinyl)-1,3-benzothiazol-2-yl)acetamide], the IC50 is 7.2 nM in assay [1]; 6.2 nM in assay [2]; 8.3 nM in assay [3] (HCT 116 cells, read-out: HCT 116 pAKT IC50).
Consider `CC(=O)Nc1nc2ccc(-c3ccnc(Sc4ccccc4Br)n3)cc2s1` [Example 134, N-(6-(2-((2-bromophenyl)sulfanyl)-4-pyrimidinyl)-1,3-benzothiazol-2-yl)acetamide], for which the figures for the IC50 in assay [1], in assay [2] and in assay [3] (setting [4]) were 668 nM, 47 nM and 1220 nM, respectively.
In the same order, the values of `CC(=O)Nc1nc2ccc(-c3ccnc(N(C)S(=O)(=O)c4cccc(C)c4)n3)cc2s1` [Example 93, N-(6-(2-(N,3-Dimethylphenylsulfonamido)pyrimidin-4-yl)benzo[d]thiazol-2-yl)acetamide] are 174 nM, 102 nM and 218 nM.
In the same order, the values of `COc1ccc(S(=O)(=O)N(C)c2cncc(-c3ccc4nc(NC(C)=O)sc4c3)n2)cc1` [Example 126, N-(6-(6-(((4-methoxyphenyl)sulfonyl)(methyl)amino)-2-pyrazinyl)-1,3-benzothiazol-2-yl)acetamide] are 321 nM, 27.1 nM and 80.6 nM.
Turning to `CN(C)CC(=O)Nc1nc2ccc(-c3cnc(Cl)c(N(C)C)c3)cc2s1` [Example 275, N-(6-(6-Chloro-5-(dimethylamino)pyridin-3-yl)benzo[d]thiazol-2-yl)-2-(dimethylamino)acetamide], the 50% inhibitory concentration (IC50) was 2900 nM in assay [1], 311 nM in assay [2] and 616 nM in assay [3] (setting [4]).
Take `CCc1ccc(S(=O)(=O)Nc2nccc(-c3ccc4nc(NC(C)=O)sc4c3)n2)cc1` [Example 84, N-(6-(2-(((4-ethylphenyl)sulfonyl)amino)-4-pyrimidinyl)-1,3-benzothiazol-2-yl)acetamide]: the IC50 in assay [1] worked out at 79.3 nM; in assay [2], 21.8 nM; in assay [3] (setting [4]), 174 nM.
For `CC(=O)Nc1nc2ccc(-c3cncc(OCC#N)c3)cc2s1` [Example 288, N-(6-(5-(Cyanomethoxy)pyridin-3-yl)benzo[d]thiazol-2-yl)acetamide], in that order: 464 nM, 83.3 nM and 236 nM.
As to `CC(=O)Nc1nc2ccc(-c3ccnc(N(C)S(=O)(=O)c4ccc(C)cc4C)n3)cc2s1` [Example 212, N-(6-(2-(N,2,4-trimethylphenylsulfonamido)pyrimidin-4-yl)benzo[d]thiazol-2-yl)acetamide], the results for the IC50 in assay [1], in assay [2] and in assay [3] (setting [4]) were 60.3 nM, 72.2 nM and 237 nM, respectively.
In the same order, the values of `CC(=O)Nc1nc2ccc(-c3cnc(C(F)(F)F)c(O)c3)cc2s1` [Example 302, N-(6-(5-hydroxy-6-(trifluoromethyl)pyridin-3-yl)benzo[d]thiazol-2-yl)acetamide] are 159 nM, 8.5 nM and 157 nM.
Take `CC(=O)Nc1nc2ccc(-c3cnc(Cl)c(OC(F)F)c3)cc2s1` [Example 247, N-(6-(6-chloro-5-(difluoromethoxy)pyridin-3-yl)benzo[d]thiazol-2-yl)acetamide]: the 50% inhibitory concentration (IC50) in assay [1] worked out at 244 nM; in assay [2], 19.5 nM; in assay [3] (setting [4]) it was 93.9 nM.
For `COc1ccc(S(=O)(=O)N(C)c2nccc(-c3ccc4nc(NC(C)=O)sc4c3)n2)cc1` [Example 88, N-(6-(2-(4-Methoxy-N-methylphenylsulfonamido)pyrimidin-4-yl)benzo[d]thiazol-2-yl)acetamide], in that order: 79.1 nM, 39.3 nM and 68.8 nM.
